# Assay results published in patent US20210380602A1, “NOVEL PYRROLE AND PYRIDONE DERIVATIVES AND USES THEREOF” (VIRGINIA COMMONWEALTH UNIVERSITY, priority 2018, published 2021).
# Where two headings read alike, the source gives them in different places.
# System: HIV-1IIIB
# Assay: Anti-HIV cytoprotection assay in CEM-SS cells infected with HIV-1IIIB, XTT viability readout after 6 days
# Type: cell-based
# Experimental: (§1) In some aspect, CEM-SS cells were incubated at 37° C./5% CO2 with serially diluted compound and a known titer of HIV-1IIIB for 6 days. The CEM-SS cell line is a derivative of the human T lymphosarcoma cell line CEM that is permissive for vif-deficient HIV-1 replication. Following the incubation, the cells were stained with the tetrazolium dye XTT and read at 460/650 nm on a spectrophotometer to evaluate cellular viability. Efficacy and toxicity values were calculated using linear regression analysis. The efficacy of compound H-a was compared to that of dolutegravir. The EC50 of compound II-a was in a range of 0.070-0.02 nM (e.g. 0.070, 0.075, 0.080, 0.085, 0.090, 0.095, 0.010, 0.015 or 0.02 nM)
# as §1, with “CEM-SS” for “In some aspect, CEM-SS”, “analysis.” for “analysis. The efficacy of compound H-a was compared to that of dolutegravir. The EC50 of compound II-a was in a range of 0.070-0.02 nM (e.g. 0.070, 0.075, 0.080, 0.085, 0.090, 0.095, 0.010, 0.015 or 0.02 nM)”
smiles,measurement,setting,value
C[C@@H]1CCO[C@H]2Cn3cc(C(=O)C(=O)NCc4ccc(F)cc4F)c(O)c3C(=O)N12 [Compound II-a],EC50,,0.095 nM
"C[C@@H]1CCO[C@H]2Cn3cc(C(=O)NCc4ccc(F)cc4F)c(=O)c(O)c3C(=O)N12 [Compound I, Dolutegravir]",EC50,"Human immunodeficiency virus 1, CEM-SS, 144 h",0.12 nM
